Experimental findings from ChEMBL document CHEMBL1121604, “Cerebrovasodilatation through selective inhibition of the enzyme carbonic anhydrase. 2. Imidazo[2,1-b]thiadiazole and imidazo[2,1-b]thiazolesulfonamides” (J Med Chem, 1980) are described below.

The subject of data set [1] is Mus musculus. Kind of data set: Protective dose against maximal electroshock in mice after peroral administration. Format: functional. The settings on record: po. A general note: In the maximal electroshock model the usual endpoint is tonic extension of the hind limbs.
The species named for data set [2] is Mus musculus. The data set is described as follows: Anticonvulsant potency in mice relative to compound UK-12130 (ED50 of compound 24/compound). In kind it is functional.
Data set [3] is described as follows: pKa of the compound was determined. In kind it is physicochemical.
Data set [4] can be described thus: Partition coefficient (logP). The settings on record: octanol/water. Format: physicochemical.

As to `NS(=O)(=O)c1nn2cc(-c3ccccc3)nc2s1`, in data set [1], the ED50 – broadly, the midpoint of the dose-response relation – was 16 mg/kg. Also, the Potency ratio in data set [2] amounted to 0.6. Besides, in data set [3], the pKa (as a rule, the negative logarithm of the acid dissociation constant) was 7.12.

On to `NS(=O)(=O)c1nn2c(-c3ccccc3)cnc2s1`, for which, in data set [1], the ED50 is over 16 mg/kg. Also, in data set [2], the Potency ratio was found to be 0.4.

The compound `CC(C)(C)c1cn2nc(S(N)(=O)=O)sc2n1` registered an ED50 in data set [1] of 2.6 mg/kg. Also, in data set [2], the Potency ratio is on record as 3.2. In data set [3], the pKa was 6.94.

The compound `COc1ccc(-c2cn3nc(S(N)(=O)=O)sc3n2)cc1` came in with an ED50 in data set [1] of over 16 mg/kg. Further, in data set [2], the Potency ratio was under 0.6.

In data set [1], `CC(=O)Nc1ccc(-c2cn3nc(S(N)(=O)=O)sc3n2)cc1` gave an ED50 of over 16 mg/kg. The Potency ratio in data set [2] was under 0.4.

In data set [1], `NS(=O)(=O)c1nn2cc(-c3ccc(O)cc3)nc2s1` registered an ED50 of 10 mg/kg. For the same compound, the Potency ratio in data set [2] amounted to 0.9. The pKa in data set [3] came out at 8.16.

On to `NS(=O)(=O)c1nn2cc(-c3ccccc3O)nc2s1`, for which the ED50 in data set [1] was over 16 mg/kg. Also, the Potency ratio in data set [2] is listed as under 0.6.

The compound `CC(C)(C)c1cn2cc(S(N)(=O)=O)sc2n1` had an ED50 in data set [1] of 7 mg/kg. For the same compound, in data set [2], the Potency ratio stood at 1.7. In addition, in data set [3], the pKa is 8.37.

Turning to `Cc1ccc(-c2cn3nc(S(N)(=O)=O)sc3n2)cc1`, in data set [1], the ED50 is over 16 mg/kg. Further, in data set [2], the Potency ratio is listed as under 0.6.

As to `NS(=O)(=O)c1nn2cc(-c3cccs3)nc2s1`, the ED50 in data set [1] was over 16 mg/kg. Further, the Potency ratio in data set [2] is reported as under 0.4.

On to `Br.Cc1cn2nc(S(N)(=O)=O)sc2n1`, for which the ED50 in data set [1] turned out to be 5 mg/kg. Also, the Potency ratio in data set [2] is 2.2.

For the compound `Br.CCc1nc2sc(S(N)(=O)=O)nn2c1C`, the 50% effect level in data set [1] (ED50) was put at a dose of 8 mg/kg. Further, the Potency ratio in data set [2] is listed as 1.

On to `Br.NS(=O)(=O)c1cn2ccnc2s1`, for which, in data set [1], the ED50 amounted to 16 mg/kg. For the same compound, in data set [2], the Potency ratio stood at 0.7.

In the case of `Br.NS(=O)(=O)C1=NN2C(=NC3CCCCC32)S1` (configuration not stated), the ED50 in data set [1] is over 16 mg/kg. Also, the Potency ratio in data set [2] was under 0.5.

`Br.NS(=O)(=O)c1nn2ccnc2s1`: it took a dose of 8 mg/kg to reach the 50% effect level in data set [1] (ED50). The Potency ratio in data set [2] turned out to be 1.4.

`Br.CCc1cn2nc(S(N)(=O)=O)sc2n1`: in data set [1], the ED50 turned out to be 5 mg/kg. Also, in data set [2], the Potency ratio is recorded as 1.6.

Consider `Br.Cc1cn2cc(S(N)(=O)=O)sc2n1`, for which it took a dose of 6 mg/kg to reach the 50% effect level in data set [1] (ED50). Moreover, the Potency ratio in data set [2] worked out at 1.3.

The compound `Br.Cc1nc2sc(S(N)(=O)=O)nn2c1C` came in with an ED50 in data set [1] of 12 mg/kg. In data set [2], the Potency ratio is recorded as 0.6.

On to `Br.NS(=O)(=O)c1nn2cc(C34CC5CC(CC(C5)C3)C4)nc2s1`, for which it took a dose of 6 mg/kg to reach the 50% effect level in data set [1] (ED50). The Potency ratio in data set [2] was found to be 1.

In data set [1], `CC(=O)Nc1nnc(S(N)(=O)=O)s1` [ACETAZOLAMIDE] showed an ED50 of 36 mg/kg.

Compound `CC(=O)/N=c1/sc(S(N)(=O)=O)nn1C` [METHAZOLAMIDE] returned an ED50 in data set [1] of 12 mg/kg. Also, the Potency ratio in data set [2] was found to be 0.75. The logP (usually the decadic logarithm of the partition coefficient of the neutral form, usually between octanol and water) in data set [4] amounted to 0.2. In data set [3], this compound gave a pKa of 7.2.
